# Measured values as given in US20100298141A1, “SUBSTITUTED PYRIDINE N-OXIDE HERBICIDES” (E. I. DU PONT DE NEMOURS AND COMPANY, priority 2007, published 2010).
# Assays:
# giant foxtail = test: Test A pre-/postemergence greenhouse test; assay type: in vivo, Setaria faberi; conditions: for Plant response rating, Foxtail, Giant: 0 to 100 scale where 0 is no effect and 100 is complete control; for Foxtail, Giant plant response rating: 0 to 100 scale
# In short: (§1)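 Pre: directed soil spray on seeded loam/sand. Post: foliar spray, plants 2–10 cm, 1–2 leaf stage, applied concurrently. Vehicle: non-phytotoxic solvent + surfactant. Greenhouse ~10 d; visual injury rating vs untreated controls.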
# barnyardgrass [1] = test: Test C flooded paddy test; assay type: in vivo, Echinochloa crus-galli; conditions: Flood
# In short: (§2)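 Compound was added to standing water 3 cm above soil, flood maintained, and plants held in a greenhouse before visual scoring against controls at 13 to 15 days.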
# velvetleaf = test: Test A pre-/postemergence greenhouse test; assay type: in vivo, Abutilon theophrasti; conditions: for Plant response rating, Velvetleaf: 0 to 100 scale where 0 is no effect and 100 is complete control; for Velvetleaf plant response rating: 0 to 100 scale
# In short: as §1
# barnyardgrass [2] = test: Test A pre-/postemergence greenhouse test; assay type: in vivo, Echinochloa crus-galli; conditions: for Plant response rating, Barnyardgrass: 0 to 100 scale where 0 is no effect and 100 is complete control; for Barnyardgrass plant response rating: 0 to 100 scale
# In short: as §1
# corn = test: Test A pre-/postemergence greenhouse test; assay type: in vivo, Zea mays; conditions: for Plant response rating, Corn: 0 to 100 scale where 0 is no effect and 100 is complete control; for Corn plant response rating: 0 to 100 scale
# In short: as §1
# redroot pigweed = test: Test A pre-/postemergence greenhouse test; assay type: in vivo, Amaranthus retroflexus; conditions: for Plant response rating, Pigweed: 0 to 100 scale where 0 is no effect and 100 is complete control; for Pigweed plant response rating: 0 to 100 scale
# In short: as §1
# rice = test: Test C flooded paddy test; assay type: in vivo, Oryza sativa; conditions: Flood
# In short: as §2
# morningglory = test: Test A pre-/postemergence greenhouse test; assay type: in vivo, Ipomoea spp.; conditions: for Plant response rating, Morningglory: 0 to 100 scale where 0 is no effect and 100 is complete control; for Morningglory plant response rating: 0 to 100 scale
# In short: as §1
# crabgrass = test: Test A pre-/postemergence greenhouse test; assay type: in vivo, Digitaria sanguinalis; conditions: for Plant response rating, Crabgrass, Large: 0 to 100 scale where 0 is no effect and 100 is complete control; for Crabgrass, Large plant response rating: 0 to 100 scale
# In short: as §1
# wheat = test: Test A pre-/postemergence greenhouse test; assay type: in vivo, Triticum aestivum; conditions: for Plant response rating, Wheat: 0 to 100 scale where 0 is no effect and 100 is complete control; for Wheat plant response rating: 0 to 100 scale
# In short: as §1
# umbrella sedge = test: Test C flooded paddy test; assay type: in vivo, Cyperus difformis; conditions: Flood
# In short: as §2
# duck salad = test: Test C flooded paddy test; assay type: in vivo, Heteranthera limosa; conditions: Flood
# In short: as §2
# [3] = Postemergence, 500 g ai/ha, 0 is no effect, 100 is complete control
# [4] = Preemergence, 125 g ai/ha, 0 no effect, 100 complete control
# [5] = 31 g ai/ha, scale 0 to 100 (0 no effect, 100 complete control)
# [6] = 62 g ai/ha, scale 0 to 100, 0 no effect, 100 complete control, 13 to 15 days
# [7] = 125 g ai/ha, scale 0 to 100, 0 no effect, 100 complete control, 13 to 15 days
# [8] = 250 g ai/ha, scale 0 to 100, 0 no effect, 100 complete control, 13 to 15 days
# [9] = Postemergence, 125 g ai/ha, 0 is no effect, 100 is complete control
# [10] = 250 g ai/ha, scale 0 to 100 (0 no effect, 100 complete control)
smiles,measurement,setting,value
Cc1cc[n+]([O-])c(S(=O)(=O)C(Cl)c2c(C(F)(F)F)nn(CC(F)(F)F)c2Cl)c1 (stereo not shown) [Compound 56],"Plant response rating, Foxtail, Giant","giant foxtail; Postemergence, 125 g ai/ha",0
same,"Foxtail, Giant plant response rating",giant foxtail; [3],50
same,"Foxtail, Giant plant response rating",giant foxtail; [4],30
same,"Plant response rating, Foxtail, Giant","giant foxtail; Preemergence, 500 g ai/ha",90
same,"Plant response rating, Barnyardgrass",barnyardgrass [1]; [5],0
same,"Plant response rating, Barnyardgrass",barnyardgrass [1]; [6],0
same,"Plant response rating, Barnyardgrass",barnyardgrass [1]; [7],0
same,"Plant response rating, Barnyardgrass",barnyardgrass [1]; [8],20
same,"Plant response rating, Velvetleaf","velvetleaf; Postemergence, 125 g ai/ha",0
same,Velvetleaf plant response rating,velvetleaf; [3],0
same,Velvetleaf plant response rating,velvetleaf; [4],0
same,"Plant response rating, Velvetleaf","velvetleaf; Preemergence, 500 g ai/ha",40
same,"Plant response rating, Barnyardgrass","barnyardgrass [2]; Postemergence, 125 g ai/ha",0
same,Barnyardgrass plant response rating,barnyardgrass [2]; [3],50
same,Barnyardgrass plant response rating,barnyardgrass [2]; [4],0
same,"Plant response rating, Barnyardgrass","barnyardgrass [2]; Preemergence, 500 g ai/ha",70
same,"Plant response rating, Corn","corn; Postemergence, 125 g ai/ha",0
same,Corn plant response rating,corn; [3],0
same,Corn plant response rating,corn; [4],0
same,"Plant response rating, Corn","corn; Preemergence, 500 g ai/ha",0
same,"Plant response rating, Pigweed","redroot pigweed; Postemergence, 125 g ai/ha",0
same,Pigweed plant response rating,redroot pigweed; [3],20
same,"Plant response rating, Pigweed","redroot pigweed; Preemergence, 500 g ai/ha",100
same,"Plant response rating, Rice",rice; [5],0
same,"Plant response rating, Rice",rice; [6],0
same,"Plant response rating, Rice",rice; [7],0
same,"Plant response rating, Rice",rice; [8],0
same,"Plant response rating, Morningglory","morningglory; Postemergence, 125 g ai/ha",0
same,Morningglory plant response rating,morningglory; [3],10
same,Morningglory plant response rating,morningglory; [4],0
same,"Plant response rating, Morningglory","morningglory; Preemergence, 500 g ai/ha",0
same,"Plant response rating, Crabgrass, Large","crabgrass; Postemergence, 125 g ai/ha",0
same,"Crabgrass, Large plant response rating",crabgrass; [3],50
same,"Crabgrass, Large plant response rating",crabgrass; [4],20
same,"Plant response rating, Crabgrass, Large","crabgrass; Preemergence, 500 g ai/ha",80
same,"Plant response rating, Wheat","wheat; Postemergence, 125 g ai/ha",0
same,Wheat plant response rating,wheat; [3],0
same,Wheat plant response rating,wheat; [4],0
same,"Plant response rating, Wheat","wheat; Preemergence, 500 g ai/ha",0
same,"Plant response rating, Sedge, Umbrella",umbrella sedge; [5],0
same,"Plant response rating, Sedge, Umbrella",umbrella sedge; [7],45
same,"Plant response rating, Sedge, Umbrella",umbrella sedge; [8],55
same,"Plant response rating, Ducksalad",duck salad; [5],0
same,"Plant response rating, Ducksalad",duck salad; [6],40
same,"Plant response rating, Ducksalad",duck salad; [7],85
same,"Plant response rating, Ducksalad",duck salad; [8],100
CC(c1c(C(F)(F)F)nn(C)c1Cl)[S+]([O-])c1cccc[n+]1[O-] (mixture of isomers) [Compound 27],"Foxtail, Giant plant response rating",giant foxtail; [9],0
same,"Foxtail, Giant plant response rating",giant foxtail; [3],60
same,"Foxtail, Giant plant response rating",giant foxtail; [4],30
same,"Plant response rating, Foxtail, Giant","giant foxtail; Preemergence, 500 g ai/ha",80
same,"Plant response rating, Barnyardgrass",barnyardgrass [1]; [5],0
same,"Plant response rating, Barnyardgrass",barnyardgrass [1]; [6],0
same,"Plant response rating, Barnyardgrass",barnyardgrass [1]; [7],0
same,"Plant response rating, Barnyardgrass",barnyardgrass [1]; [10],0
same,Velvetleaf plant response rating,velvetleaf; [9],0
same,Velvetleaf plant response rating,velvetleaf; [3],0
same,Velvetleaf plant response rating,velvetleaf; [4],20
same,"Plant response rating, Velvetleaf","velvetleaf; Preemergence, 500 g ai/ha",20
same,Barnyardgrass plant response rating,barnyardgrass [2]; [9],20
same,Barnyardgrass plant response rating,barnyardgrass [2]; [3],50
same,Barnyardgrass plant response rating,barnyardgrass [2]; [4],0
same,"Plant response rating, Barnyardgrass","barnyardgrass [2]; Preemergence, 500 g ai/ha",70
same,Corn plant response rating,corn; [9],0
same,Corn plant response rating,corn; [3],20
same,Corn plant response rating,corn; [4],0
same,"Plant response rating, Corn","corn; Preemergence, 500 g ai/ha",0
same,Pigweed plant response rating,redroot pigweed; [9],0
same,Pigweed plant response rating,redroot pigweed; [3],10
same,Pigweed plant response rating,redroot pigweed; [4],0
same,"Plant response rating, Pigweed","redroot pigweed; Preemergence, 500 g ai/ha",0
same,"Plant response rating, Rice",rice; [5],0
same,"Plant response rating, Rice",rice; [6],0
same,"Plant response rating, Rice",rice; [7],0
same,"Plant response rating, Rice",rice; [10],0
same,Morningglory plant response rating,morningglory; [9],0
same,Morningglory plant response rating,morningglory; [3],20
same,Morningglory plant response rating,morningglory; [4],0
same,"Plant response rating, Morningglory","morningglory; Preemergence, 500 g ai/ha",0
same,"Crabgrass, Large plant response rating",crabgrass; [9],0
same,"Crabgrass, Large plant response rating",crabgrass; [3],40
same,"Crabgrass, Large plant response rating",crabgrass; [4],40
same,"Plant response rating, Crabgrass, Large","crabgrass; Preemergence, 500 g ai/ha",80
same,Wheat plant response rating,wheat; [9],0
same,Wheat plant response rating,wheat; [3],0
same,Wheat plant response rating,wheat; [4],20
same,"Plant response rating, Wheat","wheat; Preemergence, 500 g ai/ha",30
same,"Plant response rating, Sedge, Umbrella",umbrella sedge; [5],0
same,"Plant response rating, Sedge, Umbrella",umbrella sedge; [6],0
same,"Plant response rating, Sedge, Umbrella",umbrella sedge; [7],0
same,"Plant response rating, Sedge, Umbrella",umbrella sedge; [8],0
same,"Plant response rating, Ducksalad",duck salad; [5],0
same,"Plant response rating, Ducksalad",duck salad; [6],0
same,"Plant response rating, Ducksalad",duck salad; [7],0
same,"Plant response rating, Ducksalad",duck salad; [10],0
